Reference: PubChem BioAssay (NCI)
Where “and” joins values, the source holds several entries; their conditions need not be identical. Equal entries are not always repeated.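 Method: 48-hour compound exposure of cells in 96-well plates, five concentrations, linear interpolation of endpoints. GI50 = concentration required for 50% inhibition of growth. TGI marks complete inhibition of growth.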

Columns and labels:
Test in all cases: NCI anticancer screen, dose series, 48 h
COLO 205 colon = test system: COLO 205 colon
DMS 114 small cell lung = test system: DMS 114 small cell lung
HCT-116 colon = test system: HCT-116 colon
LOX IMVI melanoma = test system: LOX IMVI melanoma
NCI-H23 lung = test system: NCI-H23 lung
OVCAR-4 ovarian = test system: OVCAR-4 ovarian
SF-268 CNS = test system: SF-268 CNS
SF-295 CNS = test system: SF-295 CNS
SF-539 CNS = test system: SF-539 CNS
SNB-78 CNS = test system: SNB-78 CNS

SMILES | TGI (COLO 205 colon) | TGI (DMS 114 small cell lung) | TGI (HCT-116 colon) [µM] | TGI (LOX IMVI melanoma) | TGI (NCI-H23 lung) | TGI (OVCAR-4 ovarian) | TGI (SF-268 CNS) | TGI (SF-295 CNS) | TGI (SF-539 CNS) | TGI (SNB-78 CNS) | GI50 (SF-295 CNS) | GI50 (DMS 114 small cell lung) | GI50 (OVCAR-4 ovarian) | GI50 (SF-268 CNS) | GI50 (COLO 205 colon) [µM] | GI50 (HCT-116 colon) [µM] | GI50 (LOX IMVI melanoma) [µM] | GI50 (NCI-H23 lung) [µM] | GI50 (SF-539 CNS) [µM] | GI50 (SNB-78 CNS) [µM]
[N-]=[N+]=NC12CC3C4CC5CC3C(C1)C(C5)C4C2 | > 100 µM | > 100 µM | > 100 | > 100 µM | > 100 µM | > 100 µM | > 100 µM | > 100 µM | > 100 µM | > 100 µM |  |  |  |  |  |  |  |  |  | 
O=[N+]([O-])c1ccc(C2=Nn3cnnc3SC2)o1 |  | 28.8 µM | 30.8 | 5.99 µM |  |  | 58.2 µM | 34.6 µM | 36.3 µM | 51.9 µM |  |  |  |  |  |  |  |  |  | 
COC1(OC)CC2C(=O)N(Cc3ccccc3)C1C(S(=O)(=O)c1ccccc1)C2S(=O)(=O)c1ccccc1 (configuration not stated) | 16.9 µM | 16 µM | 29.9 | 21.8 µM | 28.1 µM | 28.6 µM | 29.3 µM | > 100 µM | 27.3 µM | 39.1 µM |  |  |  |  |  |  |  |  |  | 
CC(=O)c1cccc(NC(=O)C(=O)NNc2n[nH]c(=S)n2N)c1 | 27.9 µM | 3.93 µM | 12.8 | 4.57 µM | 11.4 µM | 23.4 µM | 27.7 µM | 16.9 µM | 18.6 µM | 35 µM |  |  |  |  |  |  |  |  |  | 
Cc1nn(-c2ccccc2)c2nc(N3CCOCC3)nnc12 | > 100 µM | > 100 µM | > 100 | > 100 µM | > 100 µM | > 100 µM | > 100 µM | > 100 µM | > 100 µM | > 100 µM |  |  |  |  |  |  |  |  |  | 
CCCCC(C(=O)C(=O)NC1C2CC3CC(C2)CC1C3)C(=O)C(C)C (configuration not stated) | > 100 µM | > 100 µM | > 100 | > 100 µM | > 100 µM | > 100 µM | > 100 µM | > 100 µM | > 100 µM | > 100 µM |  |  |  |  |  |  |  |  |  | 
COc1ccc2c3c([nH]c2c1[N+](=O)[O-])C(C)=NCC3 | > 100 µM | > 100 µM | > 100 | > 100 µM |  | > 100 µM | 64.7 µM | > 100 µM | > 100 µM | > 100 µM |  |  |  |  |  |  |  |  |  | 
CNC(=O)N(C)N=NCCCl | > 100 µM | > 100 µM | > 100 | > 100 µM | > 100 µM | > 100 µM | > 100 µM | > 100 µM | > 100 µM |  |  |  |  |  |  |  |  |  |  | 
O=S1(=O)C[C@H](O)[C@H](O)CS1 | > 100 µM | > 100 µM | > 100 | > 100 µM | > 100 µM | > 100 µM | > 100 µM | > 100 µM | > 100 µM | > 100 µM |  |  |  |  |  |  |  |  |  | 
COC(=O)C1=C(O)c2cc(OC)c(OC)cc2C(c2ccc(OC)c(OC)c2)C1 (configuration not stated) | > 100 µM | > 100 µM | > 100 | > 100 µM | > 100 µM | > 100 µM | > 100 µM | > 100 µM | > 100 µM | > 100 µM |  |  |  |  |  |  |  |  |  | 
CC(C)N(C(=O)C12C3C4C5(C#N)C3C1(C#N)C5C42I)C(C)C (configuration not stated) | > 65.1 µM | > 64.5 µM | 31.5 | > 78.8 µM | > 100 µM | > 100 µM | > 100 µM | > 100 µM | > 100 µM | > 100 µM |  |  |  |  |  |  |  |  |  | 
CC(C)(C)CC(C)(C)c1cc2c(O)c(c1)Cc1cc(C(C)(C)CC(C)(C)C)cc(c1O)Cc1cc(C(C)(C)CC(C)(C)C)cc(c1O)Cc1cc(C(C)(C)CC(C)(C)C)cc(c1O)C2 | > 100 µM | > 100 µM | > 100 |  | > 100 µM | > 100 µM | > 100 µM | > 100 µM | > 100 µM | > 100 µM |  |  |  |  |  |  |  |  |  | 
CN(C)/C=N/c1nc2c(ncn2C2OC(CO)C(O)C2O)c(=O)[nH]1 (configuration not stated) | > 100 µM | > 100 µM | > 100 |  | > 100 µM | > 100 µM | > 100 µM | > 100 µM | > 100 µM | > 100 µM |  |  |  |  |  |  |  |  |  | 
S=C1NC2(CCCCCC2)NN1c1ccccc1 | 0.431 µM | > 100 µM |  | > 100 µM | > 100 µM | > 100 µM | > 100 µM | > 100 µM |  |  |  |  |  |  |  |  |  |  |  | 
CC1=NNC(=O)C2CCC(=O)N12 (configuration not stated) | > 100 µM | > 100 µM | > 100 |  |  | > 100 µM | > 100 µM |  | > 100 µM | > 100 µM |  |  |  |  |  |  |  |  |  | 
N#Cc1nc(Nc2cccc3ccccc23)sc1N | 81.5 µM |  | > 100 | 33.4 µM | 47.2 µM | > 100 µM | > 100 µM | > 100 µM | 76.6 µM | 75.6 µM |  |  |  |  |  |  |  |  |  | 
Cc1cc([N+](=O)[O-])ccc1Nc1cccc(Cl)c1C | 31.3 µM | 28.9 µM | 29.6 | 33.9 µM | 33.3 µM | 31.4 µM | 35.8 µM | 34.6 µM |  |  |  |  |  |  |  |  |  |  |  | 
C=COCCCOc1ccccc1 | > 100 µM | > 100 µM | > 100 | > 100 µM | > 100 µM | > 100 µM | > 100 µM | > 100 µM | > 100 µM |  | > 100 µM |  |  |  |  |  |  |  |  | 
O=C1c2cccc(NCCCNCCO)c2C(=O)c2cccc(NCCCNCCO)c21 | 2.67 µM and 3.78 µM | 1.92 µM and 4.77 µM | 4.9 | 4.79 µM and 6.13 µM | 6.08 µM and 4.38 µM | 2.59 µM and 6.09 µM | 2.82 µM and 4.69 µM | 18.6 µM and 7.37 µM | 4.13 µM and 2.84 µM | 6.7 µM and 17.1 µM | 6.32 µM and 2.35 µM | 0.476 µM and 1.24 µM | 0.747 µM and 2.55 µM | 0.58 µM and 1.5 µM |  |  |  |  |  | 
CCC[CH2][Sn]1([CH2]CCC)[O]N=C(c2ccccc2)C(c2ccccc2)[O]1 (configuration not stated) | 2.92 µM | 2.18 µM | 3.35 | 2.86 µM | 2.64 µM | 4.18 µM |  | 3.41 µM | 3.39 µM | 8.01 µM | 1.73 µM | 0.965 µM | 2.13 µM |  | 1.53 | 1.67 | 1.38 | 1.28 | 1.79 | 3.07
C=C(c1nc2ccc(Cl)cc2[nH]c1=O)C(O)c1ccc(C(O)C(=O)c2nc3ccc(Cl)cc3[nH]c2=O)cc1 (configuration not stated) | > 100 µM | > 100 µM | > 100 | > 100 µM | > 100 µM | > 100 µM | > 100 µM | > 100 µM | > 100 µM | > 100 µM |  |  |  |  |  |  |  |  |  | 
COc1cc(C(Cc2ccccc2)NC(C)=O)oc(=O)c1 (configuration not stated) | > 100 µM | > 100 µM |  | > 100 µM | > 100 µM | > 100 µM | > 100 µM | > 100 µM |  |  |  |  |  |  |  |  |  |  |  | 
S=C(Nc1ccccc1)N(/N=C/C=C/c1ccccc1)c1nnc(-c2ccccc2)c(-c2ccccc2)n1 | > 100 µM | > 100 µM |  | > 100 µM | > 100 µM | > 100 µM | > 100 µM | > 100 µM | > 100 µM | > 100 µM |  |  |  |  |  |  |  |  |  | 
